Reference: publication PMC11213822, “Copper resistance in the cold: Genome analysis and characterisation of a PIB‐1 ATPase in Bizionia argentinensis” (Environmental Microbiology Reports, 2024)

How the values were obtained:
BaCopA1 = biological target: T1, BaCopA1 (Bizionia argentinensis, UniProt G2EDW3); assay: time course of Pi release, malachite green; type: biochemical; conditions: 2.0 mM ATP, 2.0 mM MgCl2, 0.1 mM CuSO4, 20 mM cysteine, pH 8.0, 5 °C; 10 μM vanadate
T1 construct: gene BZARG_1779; C-terminal TEV site-GFP-His tag not removed (tag printed as His6 and his8); expressed in S. cerevisiae FGY217, detergent-solubilised, Ni-NTA purified in C12E10

purified protein = substrate: Nc1ncnc2c1ncn2[C@@H]1O[C@H](COP(=O)(O)OP(=O)(O)OP(=O)(O)O)[C@@H](O)[C@H]1O; assay: purified protein; conditions: free Mg2+ 0.25 mM, 0.1 mM CuSO4, 20 mM cysteine, asolectin/C12E10, pH 8.0, 5 °C

| Molecule | inhibition at 10 μM (BaCopA1) | Km (purified protein) [µM] |
| --- | --- | --- |
| [O]=[V]([OH])([OH])[OH] [vanadate] | an inhibitory effect of ATPase activity occurs with the addition of vanadate |  |
| BaCopA1 (Bizionia argentinensis JUB59) (protein) MTCNGCRSHVEEILSKVKYVLKASVDLEKEEATIEMESHIPIEKFQNALKNDGGRYSIHKNPLPGSPKGRSNKTDKSKSEKSPLRGLGDTFYCPMHCEGDKIYDKPGDCPVCGMDLVEEQNLSTSNSEQWTCPMHPEVVKDEAGPCPICGMDLVPMQADSSAEEKTYKKLLKKFWIASIFTLPIFIMAMSEMLTNNPLYDIMDQKNWNWVQFALSIPVVFYATWMFFERAYKSIKTWNLNMFTLIGIGAGVAWLFSVFGMFFPDVFPSQFRSESGAVHVYFEAATVILTLVLLGQLLEARAHSKTNSAVKELLKLAPNKATKVVNGEDVEVSIDNIELNDILKVKPGDKIPVDGVITEGVTTIDESMITGEPVPVDKTEGDKVSSGTINGNQSFLMKAEKVGSHTLLSQIIHMVNTASRSRAPIQNLADKVSGYFVPVVVLISLITFAVWAIWGPEPAYVYALVNAIAVLIIACPCALGLATPMSVMVGVGKGAQNGVLIKNAEALEKLDKVDTLIVDKTGTITEGKPTVEKMGAFSDVFSESDVLQYIVSLNSNSEHPLAEATVKYGKEQKAEIIKSDAFSAVTGKGVEATINNKKVALGNPKMMEYAQAEITSQMQDEAKTYQKQGKTVSYLAIDKIVIGYVVIGDKIKATSAKAIKELQDKGIAVIMLTGDNHDTAQAVASELNLADFKASMLPEDKLKEVEKLQKEGKVVAMAGDGINDAPALAKSDVGIAMGTGTDVAIESAMITLVKGDLNGIVKAKHLSHAVMKNIKQNLFFALIYNTLGVPIAAGVLFPIFGILLSPMIAALAMSFSSVSVIANALRLRTIKI |  | 150 ± 30 |
